Assay results as given in patent US12252701B2, “Chimeric antigen receptor T cell therapy” (KITE PHARMA, INC., priority 2020, dated 2025).

Legend:
[1] = cited from earlier work
CAR-T cells = test: CAR-T cell expansion assay (KIP-1 or CD3/CD28 stimulation); conditions: for % viabili.: CD3/CD28 stimulation; for % viabi.: KIP-1 stimulation
Protocol: 96-well plates were coated with 100 μl of KIP-1 antibody per well at 1 μg/ml in PBS and plates were incubated at 4° C. overnight. CAR-T cells were thawed and were rested in ImmunoCult expansion medium and incubated overnight at 37° C. Cells were then counted and resuspended at 2 million cells/ml and seed at 200,000 cells per well in 100 μl of expansion medium with 10 ng/ml recombinant IL2. For groups treated with KIP-1, 100 μl of expansion medium were added with 2× final drug dilutions. For CD3/CD28 treated groups, 100 μl of expansion media were added with 2× final drug dilutions containing 25 μl/ml of CD3/CD28 T cell activator from StemCell Technologies. Cells were then incubated at 37° C. After 4 days, cells were counted and diluted 1 to 8-fold in expansion media and then transferred to a 24-well plate. Cell counts were repeated at day 7 and transferred to T25 flasks. On day 11, all cells were harvested and counted.

CD19 CAR T cells = test: CAR T cell cytokine production (Luminex) under CD19 K562, KIP-1 or CD2/3/28 stimulation; conditions: K562-CD19 stimulation, 72 h
Protocol: Cryopreserved healthy donor CLP CD19 CAR T cells were thawed and rested overnight in 100 U/ml of IL-2 at 1×10^6/ml. 2.5×10^5 CD19 CART cells were plated in 96-well RB plate wells in a total volume of 200 μl of R10 culture media. […] CD19 CART cell cytokine production was allowed to proceed through 72 hours in the presence of stimulator and JAKi or steroid. Following 72 h of culture, 100 μl of the cell supernatant of each well were harvested and stored at −80° C. for later Luminex/Bioplex-200 cytokine analysis. Briefly, stored supernatants were thawed and 50 μl of the sample was assayed for cytokines using a ThermoFisher Procarta Plex 19-plex human cytokine assay kit (ThermoFisher, Carlsbad, CA) according to kit manufacturer's instructions and detected using a BioRad Bioplex-200 instrument. The data points generated from the luminex cytokine assay were transferred to a GraphPad PRISM IC50 dose-response curve analysis to generate IC50 or potency values for the JAKi's and steroids tested.

## C[C@@H]1CCN(C(=O)CC#N)C[C@@H]1N(C)c1ncnc2[nH]ccc12 [tofacitinib]
[1]; human, in vivo
  Cmax: 58 ng/mL
[1]; plasma protein binding, reported
  Protein binding: 40%
CAR-T cells; 10 nM, Day 0
  % viabili.: 84%
  % viabi.: 84%
CAR-T cells; 10 nM, Day 4
  % viabili.: 70.8%
  % viabi.: 77.9%
CAR-T cells; 10 nM, Day 8
  % viabili.: 80.9%
  % viabi.: 61.2%
CAR-T cells; 10 nM, Day 12
  % viabili.: 82.9%
  % viabi.: 85.2%
CAR-T cells; 20 nM, Day 0
  % viabili.: 84%
  % viabi.: 84%
CAR-T cells; 20 nM, Day 4
  % viabili.: 81.1%
  % viabi.: 84.7%
CAR-T cells; 20 nM, Day 8
  % viabili.: 70.1%
  % viabi.: 64.9%
CAR-T cells; 20 nM, Day 12
  % viabili.: 79.5%
  % viabi.: 79.3%
CAR-T cells; 40 nM, Day 0
  % viabili.: 84%
  % viabi.: 84%
CAR-T cells; 40 nM, Day 4
  % viabili.: 89.2%
  % viabi.: 84.3%
CAR-T cells; 40 nM, Day 8
  % viabili.: 73.5%
  % viabi.: 77.5%
CAR-T cells; 40 nM, Day 12
  % viabili.: 74.8%
  % viabi.: 76%
CAR-T cells; 60 nM, Day 0
  % viabili.: 84%
  % viabi.: 84%
CAR-T cells; 60 nM, Day 4
  % viabili.: 93.1%
  % viabi.: 82.3%
CAR-T cells; 60 nM, Day 8
  % viabili.: 86.6%
  % viabi.: 70.2%
CAR-T cells; 60 nM, Day 12
  % viabili.: 74.5%
  % viabi.: 76.1%
CAR-T cells; 80 nM, Day 0
  % viabili.: 84%
  % viabi.: 84%
CAR-T cells; 80 nM, Day 4
  % viabili.: 91.7%
  % viabi.: 81.8%
CAR-T cells; 80 nM, Day 8
  % viabili.: 86.3%
  % viabi.: 69.7%
CAR-T cells; 80 nM, Day 12
  % viabili.: 77%
  % viabi.: 73.4%
CAR-T cells; 100 nM, Day 0
  % viabili.: 84%
  % viabi.: 84%
CAR-T cells; 100 nM, Day 4
  % viabili.: 94.3%
  % viabi.: 73.2%
CAR-T cells; 100 nM, Day 8
  % viabili.: 85.5%
  % viabi.: 72.7%
CAR-T cells; 100 nM, Day 12
  % viabili.: 73.9%
  % viabi.: 79.4%
CAR-T cells; at the doses tested (Table 40)
  effect on T cell expansion: moderate effects
CAR-T cells; compared with upadacitinib and baricitinib
  impacts on expansion in further dose titrations: less severe in comparison
CD19 CAR T cells
  Suppression of cytokine production, IFNg (IC50): Suppress
  Suppression of cytokine production, IL-6 (IC50): Suppress
